# Measurements taken from US20110136776A1, “Copper(1)Chloride Complex of Nicotinic Acid and Pharmaceutical Compositions Containing the Same” (priority 2008, published 2011).
# Test system: fatigue
# Details: all types of fatigue: unexplained fatigue, chronic fatigue syndrome, fibromyalgia
substance,measurement,value
[CuCl (Nicotinic acid)2 H20]complex [The complex],"Effect in chronic fatigue (muscle pain, physical activity, productivity, depression)","relieved the muscle pain, increased the physical activity and productivity"
